Source: patent publication US20160145247A1, “Aminomethyl-Biaryl Derivatives Complement Factor D inhibitors and uses thereof” (NOVARTIS AG, priority 2013, published 2016)

molecular target: T1, factor D (Homo sapiens, UniProt P00746); assay: Human Complement Factor D ELISA Assay; format: biochemical; details: tested using the assay of Biological Example 1 (ELISA, Ba product quantified); read-out: activity against factor D
T1 construct: made in house; host or cells: E. coli
T1 sequence (P00746 26-253): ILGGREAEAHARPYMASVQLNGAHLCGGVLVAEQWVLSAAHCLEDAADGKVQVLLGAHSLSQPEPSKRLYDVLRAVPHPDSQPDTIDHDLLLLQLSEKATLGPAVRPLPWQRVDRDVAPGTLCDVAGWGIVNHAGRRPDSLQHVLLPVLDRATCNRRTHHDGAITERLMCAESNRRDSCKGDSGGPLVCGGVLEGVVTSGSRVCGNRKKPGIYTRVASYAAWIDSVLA

Row | Structure (SMILES) | IC50
1 | CC[N+]1=C(/C=C/C=C/C=C2/N(CCCCCC(=O)NC[C@@]3(F)C[C@@H](C(=O)NCc4cccc(Cl)c4F)N(C(=O)Nc4cn(C(N)=O)c5ccccc45)C3)c3ccc(S(=O)(=O)O)cc3C2(C)C)C(C)(C)c2cc(S(=O)(=O)O)ccc21 [Biological Example 2.2, 2-((1E,3E,5E)-5-(1-(6-((((3S,5S)-1-((1-carbamoyl-1H-indol-3-yl)carbamoyl)-5-((3-chloro-2-fluorobenzyl)carbamoyl)-3-fluoropyrrolidin-3-yl)methyl)amino)-6-oxohexyl)-3,3-dimethyl-5-sulfoindolin-2-ylidene)penta-1,3-dien-1-yl)-1-ethyl-3,3-dimethyl-5-sulfo-3H-indol-1-ium] | 694 nM

molecular target: T1, factor D; assay: factor D inhibition assay of Biological Example 2; format: biochemical; details: not given

Row | Structure (SMILES) | IC50
2 | NCc1cc(F)cc(-c2cccc(C(=O)Nc3ccc(Br)cc3CC(=O)O)c2)c1 [Example 18-B, 2-(2-(3′-(Aminomethyl)-5′-fluoro-[1,1′-biphenyl]-3-ylcarboxamido)-5-bromophenyl)acetic acid] | 8790 nM
3 | C[C@@H](N)c1cccc(-c2cc(COc3ccccc3CC(=O)O)cc(N(C)C[C@@H]3CCCO3)c2)c1F [Example 216-H] | 5 nM
4 | N[C@H](CO)c1cccc(-c2cc(COc3ccccc3CC(=O)O)cc(C(O)C3CCCCC3)c2)c1 (single isomer, unassigned) [116-I b) (tr = 4.0 min)] | 26 nM
5 | NCc1cccc(-c2cccc(CCc3ccccc3CC(=O)O)c2)c1 [Example 16-D, 2-(2-(2-(3′-(Aminomethyl)-[1,1′-biphenyl]-3-yl)ethyl)phenyl)acetic acid] | 470 nM
6 | C[C@@H](N)c1cccc(-c2cc(COc3ccccc3CC(=O)O)cc(NCC3CC3)c2)c1F [Example 150-C, (R)-2-(2-((3′-(1-Aminoethyl)-5-((cyclopropylmethyl)amino)-2′-fluoro-[1,1′-biphenyl]-3-yl)methoxy)phenyl)acetic acid] | 4 nM
7 | Cc1cc(-c2cccc([C@@H](C)N)c2F)cc(COc2ccccc2CC(=O)O)c1C [Example 283, (R)-2-(2-((3′-(1-aminoethyl)-2′-fluoro-4,5-dimethyl-[1,1′-biphenyl]-3-yl)methoxy)phenyl)acetic acid] | 13 nM
8 | Cc1cccc(CC(=O)O)c1NC(=O)c1cccc(-c2cc(F)cc(CN)c2)c1 [Example 21-C] | 109 nM
9 | N[C@H](CO)c1cccc(-c2cc(COc3ccccc3CC(=O)O)cc(C(O)C(F)(F)F)c2)c1 (mixture of isomers) [116-G a), 2-(2-((3′-((S)-1-amino-2-hydroxyethyl)-5-(2,2,2-trifluoro-1-hydroxyethyl)-[1,1′-biphenyl]-3-yl)methoxy)phenyl)acetic acid] | 6 nM
10 | NCc1cccc(-c2cc(COc3ccccc3CC(=O)O)cc(-c3cc4ccccc4[nH]3)c2)c1 [Example 209-A] | 3 nM
11 | NCc1cccc(-c2cc(CCC3CC3)cc(COc3ccccc3CC(=O)O)c2)c1 [Example 107-C, 2-(2-((3′-(Aminomethyl)-5-(2-cyclopropylethyl)-[1,1′-biphenyl]-3-yl)methoxy)phenyl)acetic acid] | 2 nM
12 | C[C@@H](N)c1cccc(-c2cc(COc3ccccc3CC(=O)O)cc(NCC(F)(F)F)c2)c1F [Example 226-C, (R)-2-(2-((3′-(1-aminoethyl)-2′-fluoro-5-((2,2,2-trifluoroethyl)amino)-[1,1′-biphenyl]-3-yl)methoxy)phenyl)acetic acid] | 8 nM
13 | O=C(O)Cc1ccccc1OCc1cccc(-c2cccc(-c3ncc[nH]3)c2)c1 [Example 138-F] | 2190 nM
14 | COCc1cc(COc2ccccc2CC(=O)O)cc(-c2cccc([C@@H](C)N)c2)c1 [Example 120-C] | 3 nM
15 | C[C@@H](N)c1cccc(-c2cc(COc3ccccc3CC(=O)O)cc(OCC(F)(F)F)c2)c1F [Example 231-B, (R)-2-(2-((3′-(1-aminoethyl)-2′-fluoro-5-(2,2,2-trifluoroethoxy)-[1,1′-biphenyl]-3-yl)methoxy)phenyl)acetic acid] | 11 nM
16 | NCc1cccc(-c2cc(COc3ccccc3CC(=O)O)c(F)c(NCC3CCCO3)c2)c1 (racemic) [154-C b), (±)-2-(2-((3′-(aminomethyl)-4-fluoro-5-(((tetrahydrofuran-2-yl)methyl)amino)-[1,1′-biphenyl]-3-yl)methoxy)phenyl)acetic acid] | 4 nM
17 | N[C@H](CO)c1cccc(-c2cc(COc3ccccc3CC(=O)O)cc(C(=O)N[C@H]3CCOc4ccccc43)c2)c1 [Example 287-G, 2-(2-((3′-((S)-1-amino-2-hydroxyethyl)-5-((S)-chroman-4-ylcarbamoyl)-[1,1′-biphenyl]-3-yl)methoxy)phenyl)acetic acid] | 37 nM
18 | C[C@@H](N)c1cccc(-c2cc(COc3ccccc3CC(=O)O)c(F)c(NCC3CCCO3)c2)c1F (mixture of isomers) [Example 221 b), 2-(2-((3′-((R)-1-aminoethyl)-2′,4-difluoro-5-(((tetrahydrofuran-2-yl)methyl)amino)-[1,1′-biphenyl]-3-yl)methoxy)phenyl)acetic acid] | 4 nM
19 | NCc1cccc(-c2cc(COc3ccccc3CC(=O)O)c3cn[nH]c3c2)c1 [Example 179, 2-(2-((6-(3-(Aminomethyl)phenyl)-1H-indazol-4-yl)methoxy)phenyl)acetic acid] | 4 nM
20 | COc1ccc(COc2ccccc2CC(=O)O)cc1-c1cccc([C@H](N)CO)c1 [Example 127-B, (S)-2-(2-((3′-(1-Amino-2-hydroxyethyl)-6-methoxy-[1,1′-biphenyl]-3-yl)methoxy)phenyl)acetic acid] | 62 nM
